Experimental data as given in US8901301B2, “Pyrrolo[2,3-]pyridine kinase inhibitors” (Plexxikon Inc., priority 2009, dated 2014).

Legend:
CYP2C9 = molecular target: T1, CYP2C9 (Homo sapiens, UniProt P11712); assay: CYP inhibition (fluorescent substrate), CYP2C9; assay type: in vitro ADME; conditions: substrate MFC; read-out: Cyp IC50 (μM) 2C9
T1 construct: purchased BD Biosciences
Experimental: CYP (Cytochrome P450) enzymes are the major drug metabolizing enzymes present in the liver. The inhibition of CYP enzyme activity (IC50) for each of CYP1A2, CYP2C19, CYP2C9, CYP2D6, CYP3A4(BFC) and CYP3A4(BQ) is determined for compounds, where inhibition of metabolism of a known substrate leads to a decrease in the fluorescence of the metabolized product. The fluorescence of the product is monitored as a function of compound concentration. Compounds are dissolved in dimethyl sulfoxide to a concentration of 100 mM. These are diluted 1 μL into 82 μL of acetonitrile. An 11 μL aliquot of this solution is then added to 204 μL of cofactor mix (1.3% NADPH Regeneration system Solution A, 1.04% NADPH Regeneration system Solution B from BD Biosciences, 5% acetonitrile and 0.05% dimethyl sulfoxide). These are then serially diluted 1:1 (160 μL to 160 μL co-factor mix) for a total of 10 points. A 10 μL aliquot of this final mixture is dispensed into 384 well assay plates and incubated for 10 minutes at 37° C. […] Assay plates are incubated at 37° C. (CYP1A2-15 min; CYP2C9-45 min; CYP2C19, 2D6 and 3A4-30 min) and read in a Tecan Safire 2 plate reader (CYP1A2, 2C19 and 3A4 409 ex/460 em; CYP2C9 and 2D6 409 ex/530 em). The signal versus compound concentration is used to determine the IC50. The enzymes and substrates for this assay are obtained from BD Biosciences.

Hgk = Hgk (Homo sapiens, UniProt O95819); assay: Biochemical inhibitory activity, other protein kinases: Hgk; conditions: for Kinase having IC50 of <1 μM: listing of the kinase means IC50 <1 μM; for Kinase having IC50 of >1 μM: listing of the kinase means IC50 >1 μM
Src = Src (Homo sapiens, UniProt P12931); assay: Biochemical inhibitory activity, other protein kinases: Src; conditions: for Kinase having IC50 of <1 μM: listing of the kinase means IC50 <1 μM; for Kinase having IC50 of >1 μM: listing of the kinase means IC50 >1 μM
[1] = Relative solubility by turbidity in aqueous buffers; assay type: physicochemical; conditions: for turbidity threshold (L, M, H) 4.5: pH 4.5 (Simulated Intestinal fluid); for turbidity threshold (L, M, H) 6.8: pH 6.8 (Simulated Intestinal fluid); for turbidity threshold (L, M, H) 7.4: pH 7.4 (Hepes Buffer)
Experimental: As an indication of relative solubility, the turbidity of compounds in aqueous solutions is assessed. To assess possible compound properties in different physiological compartments, such as stomach, intestine, and blood, a series of aqueous buffers with varying pH is used. Thus each compound is diluted into four different physiologically relevant buffers and solution turbidity is measured by spectrophotometry.
Compounds are dissolved at a concentration of 25 mM in dimethyl sulfoxide, then serially diluted 1:1 into a 96 well plate, diluting 10 times in pure dimethyl sulfoxide, with the final well of each row a dimethyl sulfoxide blank. In an assay plate, 99 μL of appropriate buffer is added to each well, and 1 μL of each sample dilution is added to the buffer, achieving a range of final total concentrations in aqueous solutions having different pH. The buffers used are Simulated Gastric Fluid (SGF-pH 1.5) 0.5M NaCl, pH 1.5; Simulated Intestinal fluid (SIF-pH 4.5 and pH 6.8) 0.05M NaH2PO4, pH 4.5 and 6.8; and Hepes Buffer (HEPES-pH 7.4) 10 mM HEPES, 150 mM NaCl, pH 7.4. Control compounds pyrene, estriol and propranolol HCl are also assessed. Plates are spun and then mixed for 1 minute, and the absorbance is read using a Tecan Safire II to read wavelengths in the visible range (490, 535, and 650 nm) at four locations per well, reflecting the degree of turbidity present. The average optical density for each wavelength in each well is graphed vs. compound concentration, and the concentration at which the curve crosses a threshold O.D. of 0.01 for each wavelength is reported as the endpoint turbidity assay result. The average of the three wavelengths is used to compare turbidity of compounds. Compounds are considered to have low solubility if the threshold concentration is <31.3 μM, moderate solubility if the threshold concentration is 31.3 μM to 250 μM, and high solubility if the threshold concentration is >250 μM.

SK-MEL-2 cells = assay: Cell growth inhibition (Cell Titer Glo), SK-MEL-2; assay type: cell-based; conditions: Homo sapiens, SK-MEL-2, 72 h; wild-type B-RAF cell line, 3 days
Experimental: Compounds are assessed in a variety of cell based assays, employing cells with or without B-Raf V600E mutation, for example cell lines with B-Raf V600E mutation (A375 and COLO205), as well as tumorigenic cell lines with wild-type B-RAF (SW620 and SK-MEL-2). Reagent and assay conditions are as follows:
SK-MEL-2 cells growth medium: • Minimum Eagle essential medium, 2 mM L-glutamine, 1.5 g/L sodium bicarbonate, 0.1 mM non-essential amino acids, 1.0 mM sodium pyruvate, 10% fetal bovine serum. • On day 1, cells are seeded in growth media in 200 μL per well in a 96-well polystyrene tissue culture plate at 2,000 cells per well (A375, COLO205, SK-MEL-2) or 5,000 cells per well for SW620, and incubated at 37° C. and 5% CO2 overnight. • On day 2, compound at 4 mM in dimethyl sulfoxide is serially diluted 1:4 (10 μL with 30 μL dimethyl sulfoxide) seven times for a total of 8 concentration points. For each dilution point a 1 μL aliquot is added to a well containing cells (highest dilution point at 20 μM), with 1 μL of dimethyl sulfoxide as a negative control (each sample at 0.5% dimethyl sulfoxide). The cells are incubated for 3 days at 37° C. in 5% CO2. • On day 5, Cell Titer Glo (Promega) is thawed and added 100 μL to each well and the plate shaken for 1-2 minutes. The plates are incubated for 10 minutes at room temperature, then […] signal is read (e.g. on Safire reader). The measured fluoresence correlates directly with cell number, such that the reading as a function of compound concentration is used to determine the IC50 value.

Sequence of Hgk (O95819 whole entry, species assumed): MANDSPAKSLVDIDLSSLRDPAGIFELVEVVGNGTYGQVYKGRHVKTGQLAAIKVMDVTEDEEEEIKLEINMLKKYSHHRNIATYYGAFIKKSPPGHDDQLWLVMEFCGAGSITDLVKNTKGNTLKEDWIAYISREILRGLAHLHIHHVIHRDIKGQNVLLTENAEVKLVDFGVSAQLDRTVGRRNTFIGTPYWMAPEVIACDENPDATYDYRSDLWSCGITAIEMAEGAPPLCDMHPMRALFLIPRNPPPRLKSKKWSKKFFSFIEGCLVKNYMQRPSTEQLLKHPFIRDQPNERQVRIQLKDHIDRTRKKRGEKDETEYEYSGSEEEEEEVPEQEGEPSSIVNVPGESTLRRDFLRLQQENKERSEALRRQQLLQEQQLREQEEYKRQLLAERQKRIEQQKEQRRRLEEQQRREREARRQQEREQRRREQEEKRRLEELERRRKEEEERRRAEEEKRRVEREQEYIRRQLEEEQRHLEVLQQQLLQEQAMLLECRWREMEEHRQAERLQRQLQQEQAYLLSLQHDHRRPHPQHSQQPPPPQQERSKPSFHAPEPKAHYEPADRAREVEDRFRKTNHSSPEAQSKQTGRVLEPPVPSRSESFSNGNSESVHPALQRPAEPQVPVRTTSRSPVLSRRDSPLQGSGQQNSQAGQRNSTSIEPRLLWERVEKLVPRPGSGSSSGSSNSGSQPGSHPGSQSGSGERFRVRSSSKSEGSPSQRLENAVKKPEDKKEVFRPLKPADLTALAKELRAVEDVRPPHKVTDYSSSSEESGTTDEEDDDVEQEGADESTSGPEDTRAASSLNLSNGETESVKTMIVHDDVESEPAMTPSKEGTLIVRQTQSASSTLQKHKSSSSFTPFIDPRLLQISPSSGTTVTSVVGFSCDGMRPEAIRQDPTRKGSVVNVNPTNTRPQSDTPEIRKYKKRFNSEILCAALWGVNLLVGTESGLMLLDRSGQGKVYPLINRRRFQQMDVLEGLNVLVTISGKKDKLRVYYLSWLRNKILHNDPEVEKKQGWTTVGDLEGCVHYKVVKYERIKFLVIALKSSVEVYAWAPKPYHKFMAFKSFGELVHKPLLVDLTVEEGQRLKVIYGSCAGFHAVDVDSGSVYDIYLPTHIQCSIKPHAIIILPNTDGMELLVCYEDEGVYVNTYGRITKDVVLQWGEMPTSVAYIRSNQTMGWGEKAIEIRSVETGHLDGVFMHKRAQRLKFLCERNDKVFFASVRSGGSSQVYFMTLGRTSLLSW
Sequence of Src (P12931 whole entry, species assumed): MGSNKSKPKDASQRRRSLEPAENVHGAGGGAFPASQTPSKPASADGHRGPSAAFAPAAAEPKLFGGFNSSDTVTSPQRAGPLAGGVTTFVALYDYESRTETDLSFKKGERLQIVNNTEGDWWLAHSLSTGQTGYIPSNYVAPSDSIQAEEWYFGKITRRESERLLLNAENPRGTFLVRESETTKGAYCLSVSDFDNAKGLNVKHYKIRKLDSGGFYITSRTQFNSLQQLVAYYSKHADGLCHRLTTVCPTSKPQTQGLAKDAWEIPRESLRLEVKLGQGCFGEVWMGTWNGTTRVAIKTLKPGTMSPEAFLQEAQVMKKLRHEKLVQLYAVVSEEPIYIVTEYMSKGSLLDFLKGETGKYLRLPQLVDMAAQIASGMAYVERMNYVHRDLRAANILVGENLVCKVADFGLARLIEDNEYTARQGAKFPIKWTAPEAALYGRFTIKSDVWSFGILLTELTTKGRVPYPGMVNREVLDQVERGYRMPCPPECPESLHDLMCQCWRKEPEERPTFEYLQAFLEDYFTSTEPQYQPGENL
T1 sequence (P11712 whole entry): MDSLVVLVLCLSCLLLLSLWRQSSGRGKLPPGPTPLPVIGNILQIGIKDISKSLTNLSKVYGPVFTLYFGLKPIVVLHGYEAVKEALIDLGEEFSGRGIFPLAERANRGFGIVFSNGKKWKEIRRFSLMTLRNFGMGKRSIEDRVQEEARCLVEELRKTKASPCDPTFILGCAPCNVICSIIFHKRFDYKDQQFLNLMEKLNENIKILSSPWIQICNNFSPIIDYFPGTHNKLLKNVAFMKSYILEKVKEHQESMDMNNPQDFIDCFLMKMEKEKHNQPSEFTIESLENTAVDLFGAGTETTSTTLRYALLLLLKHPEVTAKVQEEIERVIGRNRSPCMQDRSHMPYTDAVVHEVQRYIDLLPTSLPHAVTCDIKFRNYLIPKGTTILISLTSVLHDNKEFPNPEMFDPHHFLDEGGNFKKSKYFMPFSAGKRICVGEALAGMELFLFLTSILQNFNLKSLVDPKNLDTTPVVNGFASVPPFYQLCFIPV

| IC50 (CYP2C9) | Kinase having IC50 of <1 μM (Hgk) | Kinase having IC50 of <1 μM (Src) | IC50 (SK-MEL-2 cells) | Kinase having IC50 of >1 μM (Hgk) | Kinase having IC50 of >1 μM (Src) | Structure (SMILES) | turbidity threshold (L, M, H) 4.5 [1] | turbidity threshold (L, M, H) 6.8 [1] | turbidity threshold (L, M, H) 7.4 [1] |
| --- | --- | --- | --- | --- | --- | --- | --- | --- | --- |
| > 10 µM | Hgk | Src | > 20 µM | – | – | N#Cc1cnc2[nH]cc(C(=O)c3c(F)ccc(NS(=O)(=O)c4cc(F)ccc4F)c3F)c2c1 [Compound P-0004, N-[3-(5-cyano-1H-pyrrolo[2,3-b]pyridine-3-carbonyl)-2,4-difluoro-phenyl]-2,5-difluoro-benzenesulfonamide] | M (moderate solubility if the threshold concentration is 31.3 μM to 250 μM) | M (moderate solubility if the threshold concentration is 31.3 μM to 250 μM) | M (moderate solubility if the threshold concentration is 31.3 μM to 250 μM) |
| 5 to 10 µM | – | – | > 20 µM | Hgk | Src | CCCS(=O)(=O)Nc1ccc(F)c(C(=O)c2c[nH]c3ncc(C#N)cc23)c1F [Compound P-0002, propane-1-sulfonic acid [3-(5-cyano-1H-pyrrolo[2,3-b]pyridine-3-carbonyl)-2,4-difluoro-phenyl]-amide] | M (moderate solubility if the threshold concentration is 31.3 μM to 250 μM) | M (moderate solubility if the threshold concentration is 31.3 μM to 250 μM) | M (moderate solubility if the threshold concentration is 31.3 μM to 250 μM) |
| > 10 µM | – | – | > 20 µM | Hgk | Src | CN(C)S(=O)(=O)Nc1ccc(F)c(C(=O)c2c[nH]c3ncc(C#N)cc23)c1F [Compound P-0007, N,N-dimethylamino-sulfonic acid [3-(5-cyano-1H-pyrrolo[2,3-b]pyridine-3-carbonyl)-2,4-difluoro-phenyl]-amide] | M (moderate solubility if the threshold concentration is 31.3 μM to 250 μM) | H (high solubility if the threshold concentration is >250 μM) | H (high solubility if the threshold concentration is >250 μM) |
| 5 to 10 µM | – | – | > 5 µM | Hgk | Src | CCCS(=O)(=O)Nc1ccc(F)c(C(=O)c2c[nH]c3ncc(-c4cnc(OC)nc4)cc23)c1F [Compound P-0001, propane-1-sulfonic acid {2,4-difluoro-3-[5-(2-methoxy-pyrimidin-5-yl)-1H-pyrrolo[2,3-b]pyridine-3-carbonyl]-phenyl}-amide] | M (moderate solubility if the threshold concentration is 31.3 μM to 250 μM) | M (moderate solubility if the threshold concentration is 31.3 μM to 250 μM) | M (moderate solubility if the threshold concentration is 31.3 μM to 250 μM) |

Second part, the compound before the results:

| Structure (SMILES) | IC50 (CYP2C9) | Kinase having IC50 of <1 μM (Hgk) | Kinase having IC50 of <1 μM (Src) | IC50 (SK-MEL-2 cells) | Kinase having IC50 of >1 μM (Hgk) | Kinase having IC50 of >1 μM (Src) | turbidity threshold (L, M, H) 4.5 [1] | turbidity threshold (L, M, H) 6.8 [1] | turbidity threshold (L, M, H) 7.4 [1] |
| --- | --- | --- | --- | --- | --- | --- | --- | --- | --- |
| N#Cc1cnc2[nH]cc(C(=O)c3c(F)ccc(NS(=O)(=O)c4cccc(F)c4)c3F)c2c1 [Compound P-0005, N-[3-(5-cyano-1H-pyrrolo[2,3-b]pyridine-3-carbonyl)-2,4-difluoro-phenyl]-3-fluoro-benzenesulfonamide] | 5 to 10 µM | Hgk | Src | > 20 µM | – | – | M (moderate solubility if the threshold concentration is 31.3 μM to 250 μM) | M (moderate solubility if the threshold concentration is 31.3 μM to 250 μM) | M (moderate solubility if the threshold concentration is 31.3 μM to 250 μM) |
| N#Cc1cnc2[nH]cc(C(=O)c3c(F)ccc(NS(=O)(=O)N4CCCC4)c3F)c2c1 [Compound P-0006, pyrrolidine-1-sulfonic acid [3-(5-cyano-1H-pyrrolo[2,3-b]pyridine-3-carbonyl)-2,4-difluoro-phenyl]-amide] | > 10 µM | – | – | – | Hgk | Src | M (moderate solubility if the threshold concentration is 31.3 μM to 250 μM) | M (moderate solubility if the threshold concentration is 31.3 μM to 250 μM) | M (moderate solubility if the threshold concentration is 31.3 μM to 250 μM) |
| CCCS(=O)(=O)Nc1cccc(C(=O)c2c[nH]c3ncc(C#N)cc23)c1F [Compound P-0003, propane-1-sulfonic acid [3-(5-cyano-1H-pyrrolo[2,3-b]pyridine-3-carbonyl)-2-fluoro-phenyl]-amide] | > 10 µM | – | – | > 20 µM | Hgk | Src | M (moderate solubility if the threshold concentration is 31.3 μM to 250 μM) | M (moderate solubility if the threshold concentration is 31.3 μM to 250 μM) | M (moderate solubility if the threshold concentration is 31.3 μM to 250 μM) |
